Where two headings read alike, the source gives them in different places.

The target in data set [1] is T1, human CYP51A1 (Homo sapiens, UniProt Q16850).
T1 construct: made in house
T1 sequence (Q16850 1-509): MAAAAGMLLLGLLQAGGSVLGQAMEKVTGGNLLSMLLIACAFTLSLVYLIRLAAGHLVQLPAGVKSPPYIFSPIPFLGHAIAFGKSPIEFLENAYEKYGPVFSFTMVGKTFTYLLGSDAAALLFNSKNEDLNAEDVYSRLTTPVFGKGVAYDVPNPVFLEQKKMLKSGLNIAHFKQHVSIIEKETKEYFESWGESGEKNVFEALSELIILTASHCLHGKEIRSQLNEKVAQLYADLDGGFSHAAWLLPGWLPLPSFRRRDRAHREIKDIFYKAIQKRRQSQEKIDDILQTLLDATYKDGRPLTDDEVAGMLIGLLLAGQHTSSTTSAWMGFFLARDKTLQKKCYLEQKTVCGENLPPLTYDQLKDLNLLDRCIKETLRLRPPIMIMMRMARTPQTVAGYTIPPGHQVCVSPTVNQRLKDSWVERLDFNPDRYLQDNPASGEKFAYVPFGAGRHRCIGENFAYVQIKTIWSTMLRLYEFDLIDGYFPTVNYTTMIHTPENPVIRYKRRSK
Conditions: cited from earlier work; for affinity: direct coordination with heme iron; for Kd: read-out: Kdapp.

For data set [2], the target named is T1, human CYP51A1. Briefly: Spectrophotometric titration (difference spectra) of CYP51A1 in the presence of lanosterol. The data set is classed as binding. To be noted: for Kd: spectral titration, CYP51A1 4 μM, lanosterol 5 μM, pH 7.4, room temperature, read-out: apparent dissociation constant (Kdapp); for spectral response in the difference spectrum of CYP51A1: titration in the presence of lanosterol, baicalein and luteolin 7,3′-disulfate up to 30 μM, luteolin up to 15 μM. As for the experimental part: Spectrophotometric titration was used to determine the apparent dissociation constants (Kdapp) for the enzyme–ligand complexes. The spectral measurements were performed on Cary Series UV-Vis-NIR (Agilent Technologies, Santa Clara, CA, USA) spectrophotometer using tandem quartz cuvettes (1 cm optical path) to exclude the absorption of ligands. Natural substrate, lanosterol, at final concentration 5 μM was added before the titration to the CYP51A1 (final concentration 4 μM) in 50 mM potassium phosphate buffer, pH 7.4. […] The difference spectra were recorded after each addition of ligand at room temperature in the range of 350–500 nm. The apparent dissociation constants were determined by plotting the absorbance changes in the difference spectra versus the concentration of free ligand and evaluated by using the Hill equation (OriginPro 8.1 statistical data analysis package): Aobs=Amax×(S×n/Kdapp×n+S×n), where Aobs—the observed change in the absorption, Amax—the absorbance change at ligand saturation, Kdapp—the apparent dissociation constant for the ligand–enzyme complex, S—the ligand concentration, n—a Hill coefficient.

The subject of data set [3] is CYP1A, CYP2B and CYP3A4. To be noted: range over CYP1A; cited from earlier work.
In data set [4] the target is T1, human CYP51A1. Briefly: Surface plasmon resonance binding to immobilized CYP51A1. Conditions: SPR; for Kd: immobilized CYP51A1, read-out: Kd (equilibrium dissociation constant). A general note: SPR reads the build-up and loss of mass on a sensor chip optically.
Data set [5] relates to CYP2C9. On the set-up: method as in PMID 32661014. Conditions: comparable to positive control sulfaphenazole; cited from earlier work.
The subject of data set [6] is CYP2C19. Conditions: cited from earlier work.
The test system of data set [7] is CYP3A4. Conditions: cited from earlier work.
Data set [8] has as its target T2, human CYP51A1 (lanosterol 14α-demethylase) (Homo sapiens, UniProt Q16850).
T2 construct: made in house
T2 sequence (Q16850 1-509): T1 sequence (Q16850 1-509)
As to the kind of experiment: Lanosterol 14α-demethylase activity of CYP51A1 in the reconstituted system. The data set is classed as biochemical. Conditions: for Relative Activity: CYP51A1 0.5 μM, CPR 2.0 μM, lanosterol 50 μM.

The subject of data set [9] is CYP1A2, CYP3A, CYP2B6, CYP2E1 and CYP2D6. On the set-up: method as in PMID 28872689, PMID 18191104. Conditions: range over CYP1A2, CYP3A; cited from earlier work.
Data set [10] relates to CYP2D6. On the set-up: method as in PMID 32942157. Conditions: 20 μM luteolin; cited from earlier work.
The mark [11] stands for this setting: 25 °C, Langmuir 1:1 model, n = 3, read-out: koff (dissociation rate constant).
The mark [12] stands for this setting: 25 °C, Langmuir 1:1 model, n = 3, read-out: kon (association rate constant).
[13] abbreviates: 25 °C, Two state reaction model, n = 3.
Setting [14] is: concentration-dependent, up to 30 μM.

In the case of `CCCN(CCc1ccc(Cl)c(Cl)c1)CC(O)c1cccnc1` (stereo not drawn) [LK-935, 2-((3,4-Dichlorophenethyl)(Propyl)Amino)-1-(Pyridin-3-Yl)Ethanol], the affinity entry in data set [1] is “submicromolar range”.

Take `C[C@]12CC[C@H](O)CC1=CC[C@@H]1[C@@H]2CC[C@]2(C)C(c3cccnc3)=CC[C@@H]12` [abiraterone]: the Kd in [1] was 22 µM.

Usually IC50 stands for the concentration that inhibits the measured activity by half. For `O=c1cc(-c2ccccc2)oc2cc(O)c(O)c(O)c12` [baicalein], the Kd in data set [2] was determined as 8.2 ± 0.4 µM; in data set [4] (25 °C) it was 12.5 µM. For the same molecule, the “spectral response in the difference spectrum of CYP51A1” value in [2] is “reverse type I spectral response”. Further, the half-inhibitory concentration (IC50) in data set [3] was 0.5 to 36 µM.

Turning to `O=c1cc(-c2ccccc2)oc2cc(OS(=O)(=O)O)cc(O)c12` [chrysin 7-sulfate], the 50% inhibitory concentration (IC50) in data set [5] was 2.7 µM. Further, the inhibition effect result in data set [6] and in [7] was “slight inhibition effect” throughout.

`Clc1ccc(COC(Cn2ccnc2)c2ccc(Cl)cc2Cl)cc1` (stereo not drawn) [econazole]: the affinity entry in data set [1] is “submicromolar range”.

For `C[C@]12CC[C@H](O)CC1=CC[C@@H]1[C@@H]2CC[C@]2(C)C(n3cnc4ccccc43)=CC[C@@H]12` [galeterone], the Kd in data set [1] was 16 µM.

Turning to `CC(C)=CCC[C@@H](C)[C@H]1CC[C@@]2(C)C3=C(CC[C@]12C)[C@@]1(C)CC[C@H](O)C(C)(C)[C@@H]1CC3` [lanosterol], the koff in data set [4] (setting [11]) is 0.0001 s⁻¹. For the same molecule, the kon in data set [4] (setting [12]) amounted to 41.4 M⁻¹ s⁻¹. Further, the Kd in [4] (25 °C) was determined as 2.4 µM.

For orientation: inhibition means the percentage by which the read-out fell short of the control. In the case of `O=c1cc(-c2ccc(O)c(OS(=O)(=O)O)c2)oc2cc(OS(=O)(=O)O)cc(O)c12` [luteolin 7,3′-disulfate], in [8] (compound 25 μM), the “Relative Activity” value stood at 49.9%. Also, the inhibition at 25 µM in data set [8] (compound 25 μM, read-out: level of inhibition) worked out at 50.1%. Moreover, the half-inhibitory concentration (IC50) in [8] (reconstituted system, 5, 10, 25, 50 and 100 μM tested, read-out: apparent IC50) was > 25 µM. The “spectral response in the difference spectrum of CYP51A1” value in [2] is recorded as “does not cause changes in the difference spectrum”. The koff in data set [4] (setting [11]) came to 0.00084 s⁻¹. In addition, the kon in data set [4] (setting [12]) was determined as 294 M⁻¹ s⁻¹. Moreover, the Kd in [4] (25 °C) was determined as 2.9 µM. Also, in data set [4] (relative to complex formation with lanosterol), the “association rate of the CYP51A1 complex compared to lanosterol” value is reported as “seven times faster”. For the same molecule, the “dissociation rate of the CYP51A1 complex compared to lanosterol” value in data set [4] (relative to complex with lanosterol) is “about eight times higher”.

As to `O=c1cc(-c2ccc(O)c(O)c2)oc2cc(O)cc(O)c12` [luteolin], the concentration for half-maximal inhibition (IC50) in data set [9] is 1.6 to 133 µM. Moreover, in data set [10], the “O-demethylation of 3-[2-(N,N-diethyl-N-methyl-ammonium)ethyl]-7-methoxy-4-methylcoumarin inhibited to” value is on record as 40% and the “inhibition in reaction with dextromethorphan” value was < 5%. In addition, in data set [8] (compound 25 μM), the “Relative Activity” value is recorded as 92.6%. Further, in [2], the Kd amounted to 5.1 ± 0.5 µM and the “spectral response in the difference spectrum of CYP51A1” value is “reverse type I spectral response”. Moreover, in data set [4] (setting [13]), the “koff2 (backward rate constant for CP ↔ CP* transition)” value was “koff2 (1/s × 10^−4) = 14 ± 2” and the “kon2 (forward rate constant for CP ↔ CP* transition)” value is reported as “kon2 (1/s × 10^−4) = 33 ± 4”. Moreover, the koff in [4] (25 °C, Two state reaction model, n = 3, read-out: koff1 (dissociation rate constant)) was found to be 0.019 s⁻¹. In addition, in data set [4] (25 °C, Two state reaction model, n = 3, read-out: kon1 (association rate constant)), the kon amounted to 282 M⁻¹ s⁻¹. Besides, in data set [4] (25 °C), the Kd is 20 µM.

In the case of `O=c1c(O)c(-c2ccc(O)c(OS(=O)(=O)O)c2)oc2cc(O)cc(O)c12` [quercetin 3′-sulfate], the inhibition effect in data set [6] (setting [14]) and in data set [7] (setting [14]) was ≤ 50% in each case.

The values above are taken from article PMC8070018, “Human Lanosterol 14-Alpha Demethylase (CYP51A1) Is a Putative Target for Natural Flavonoid Luteolin 7,3′-Disulfate” (Molecules, 2021).
